Key:
[1] = system: Grp78; test: Grp78 immunoblot in HT1080 cells; format: cell-based, human; conditions: 2.5 μM, 16 hours (also 24 or 36 hours)
Description: Cells (2×10^6) were cultured in 10-cm dishes, collected using a cell scraper at 4° C., and lysed by addition of 150 μl cell lysis buffer [50 mM Tris pH 7.4, 150 mM NaCl, 10% glycerol, 0.5% Triton X-100. 0.5% NP-40, 2 mM Na3VO4, 20 mM beta-glycerophosphate, 10 mM NaF, 1 mM DTT, 1 mM PMSF). Lysates were centrifuged for 5 min at 10,000×g, and proteins (˜40 μg) were resolved by SDS-PAGE followed by semi-dry transfer to nitrocellulose membranes. Membranes were blocked in TBS-5% milk supplemented with 0.1% Tween-20. The blots were then probed overnight with relevant antibodies, washed, and incubated for 2 hours with species-specific secondary antibodies conjugated to horseradish peroxidase. After washing in block solution, immunoreactive material was detected by enhanced chemiluminescence (SuperSignal West Dura Extended, Pierce, Inc., Rockville, Ill.).
HT1080 cells were exposed to DMSO vehicle (lane 1), irestatin 9389 (2.5 μM; lane 2) for 16 hours or Tm (5 μg/ml; lane 3) for 8 hours. Following treatments, cells were harvested, lysed, and analyzed by immunoblotting using anti-Grp78 antibody (top) or anti-actin (bottom) as a loading control. […] Cell lysates were analyzed by Western immunoblotting using anti-IRE1α (bottom) or anti-phospho-IRE1α antibodies (top). […] Lysates were analyzed by Western blot using antisera specific for phospho-JNK1 (top) or total JNK1 (bottom). […]

[2] = system: HT1080 s.c. tumor xenografts; format: in vivo; conditions: 50 mg/kg i.p. every other day, 6 doses
Description: Female 4-6 week-old SCID (B6.CB17) mice supplied by Stanford University Animal Facility were housed in the same facility (American Association of Laboratory Animal Care-approved) with 12 hour light cycles. Food and water were provided ad libitum. All experiments were approved by the institutional care and use committee. The potential toxicities of irestatin 9389 were examined in SCID mice injected i.p. once daily over 4 consecutive days with increasing doses of irestatin 9389 or vehicle control. […] For xenografts, 2×10^6 HT1080 fibrosarcoma cells were resuspended in 50-75 μl PBS and injected s.c. in the dorsal flanks of host mice. When the implanted tumors reached a mean volume of ˜150 mm^3, mice were randomly assigned into different treatment groups. Mice were dosed by i.p. bolus injection with either vehicle (50% DMSO, 20% cremophor EL, 30% ethanol) or irestatin 9389 (50 mg/kg). Tumors (6-8 per group) were measured every 2-4 days with calipers. Tumor volume was calculated using the formula [(W^2×L) 0.52] where W=width and L=length.
A. Irestatin 9389 impairs IREla activity in implanted tumor xenografts. […] Tumor volumes were calculated based on caliper measurements taken every 3-5 days. Data points represent the mean volume calculated from at least 7 tumors per group, with SEM shown in one direction. […]

**Q.** For `Cc1csc(NC(=O)CSc2nc3c(c(C(F)(F)F)c2C#N)CCC3)n1` [Compound 9389], which Grp78 levels ([1]; listed as Irestatin 9389) is on record?
**A.** does not modulate the expression of Grp78

**Q.** What about the Grp78 levels ([1]; listed as irestatin 9389) of the same compound?
**A.** no effect on Grp78 levels

**Q.** And the antitumor effect [2]?
**A.** significant cytostatic antitumor effects

Source: patent US20090291857A1, “METHODS TO IDENTIFY INHIBITORS OF THE UNFOLDED PROTEIN RESPONSE” (THE BOARD OF TRUSTEES OF THE LELAND STANFORD JUNIOR …, priority 2006, published 2009)
